Literature values, collected in patent US11116745B2, “Prebiotic formulation” (Deep Cell Industries, Inc., priority 2018, dated 2021).

What was measured:
cannabinoid CB2 receptor = cannabinoid CB2 receptor (Homo sapiens, UniProt P34972)
[1] = not given; remark: listed apart in the source
enteric glial cells = settings: over active enteric glial cells

cannabinoid CB2 receptor, sequence (P34972 whole entry): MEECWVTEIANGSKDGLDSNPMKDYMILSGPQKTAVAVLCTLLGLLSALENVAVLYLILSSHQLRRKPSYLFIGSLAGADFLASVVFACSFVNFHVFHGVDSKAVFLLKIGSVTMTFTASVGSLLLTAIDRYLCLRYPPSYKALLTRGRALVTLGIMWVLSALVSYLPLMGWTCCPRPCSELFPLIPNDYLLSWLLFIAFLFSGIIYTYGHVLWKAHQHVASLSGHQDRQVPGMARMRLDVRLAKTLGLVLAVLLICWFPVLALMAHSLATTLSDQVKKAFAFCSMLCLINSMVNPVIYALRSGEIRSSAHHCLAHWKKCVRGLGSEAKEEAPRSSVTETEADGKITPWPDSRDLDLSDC

For C=C(C)[C@@H]1CCC(C)=C[C@H]1c1c(O)cc(CCCCC)cc1O [Cannabidiol], the “affinity for the cannabinoid CB2 receptor” value (cannabinoid CB2 receptor) is listed as “very low affinity”, the “oral bioavailability (absorption)” value is listed as 13-19% and the solubility [1] is listed as “low”. For the same compound, the “expression of S100B and iNOS proteins” value (enteric glial cells) was “reduce”.
